Values after ≈ are worked out from the molar mass of the structure shown. Like-named read-outs stand apart in the source and are kept apart here.
Assays:
B. brevis IFO 12334 = test: MIC in Mueller-Hinton agar, ANT(4')-producing strain; type: cell-based; details: Brevibacillus brevis, IFO12334
Procedure: (§1) The Minimum Inhibitory Concentrations (MIC's) of BB-K311, amikacin and kanamycin A were determined in Mueller-Hinton agar against a number of kanamycin-sensitive and kanamycin-resistant strains of organisms.

S. aureus A22054 = test: as above; type: cell-based; details: Staphylococcus aureus
Procedure: as §1

S. epidermidis A22033 = test: as above; type: cell-based; details: Staphylococcus epidermidis
Procedure: as §1

E. cloacae A20364 = test: MIC in Mueller-Hinton agar, APH(3')-I producer; type: cell-based; details: Enterobacter cloacae
Procedure: as §1

E. coli A20363 = test: MIC in Mueller-Hinton agar, APH(3')-I producer; type: cell-based; details: Escherichia coli
Procedure: as §1

E. cloacae A21006 = test: MIC in Mueller-Hinton agar, APH(3')-II producer; type: cell-based; details: Enterobacter cloacae
Procedure: as §1

E. coli A20107 = test: MIC in Mueller-Hinton agar, APH(3')-II producer; type: cell-based; details: Escherichia coli
Procedure: as §1

E. coli A20895 = test: MIC in Mueller-Hinton agar, AAC(3)-I producer; type: cell-based; details: Escherichia coli
Procedure: as §1

E. coli A20732 = test: MIC in Mueller-Hinton agar, ANT(2") producer; type: cell-based; details: Escherichia coli
Procedure: as §1

[1] = tested on: AAC(6')-producing and ANT(4')-producing strains; test: Average activity relative to amikacin, Table 2 strains; type: cell-based; details: AAC(6')-producing and ANT(4')-producing strains of Table 2
Procedure: as §1

E. cloacae A20464 = test: MIC in Mueller-Hinton agar, kanamycin-sensitive strain; type: cell-based; details: Enterobacter cloacae
Procedure: as §1

E. coli A9632 = test: as above; type: cell-based; details: Escherichia coli
Procedure: as §1

P. stuartii A20615 = test: as above; type: cell-based; details: Providencia stuartii
Procedure: as §1

P. Morganii A20031 = test: as above; type: cell-based; details: Morganella morganii
Procedure: as §1

K. pneumoniae A15130 = test: as above; type: cell-based; details: Klebsiella pneumoniae
Procedure: as §1

S. marcescens A20019 = test: as above; type: cell-based; details: Serratia marcescens
Procedure: as §1

S. aureus Smith = test: as above; type: cell-based; details: Staphylococcus aureus
Procedure: as §1

P. mirabilis A9900 = test: as above; type: cell-based; details: Proteus mirabilis
Procedure: as §1

B. brevis ATCC8185 = test: as above; type: cell-based; details: Brevibacillus brevis
Procedure: as §1

P. vulgaris A9526 = test: as above; type: cell-based; details: Proteus vulgaris
Procedure: as §1

S. marcescens A22382 = test: MIC in Mueller-Hinton agar, AAC(6')-producing strain; type: cell-based; details: Serratia marcescens
Procedure: as §1

S. epidermidis A22211 = test: as above; type: cell-based; details: Staphylococcus epidermidis
Procedure: as §1

S. aureus A22153 = test: as above; type: cell-based; details: Staphylococcus aureus
Procedure: as §1

P. aeruginosa GN4925 = test: as above; type: cell-based; details: Pseudomonas aeruginosa
Procedure: as §1

S. aureus A22421 = test: as above; type: cell-based; details: Staphylococcus aureus
Procedure: as §1

S. marcescens A21226 = test: as above; type: cell-based; details: Serratia marcescens
Procedure: as §1

S. marcescens A22288 = test: as above; type: cell-based; details: Serratia marcescens
Procedure: as §1

P. rettgeri HM-56 = test: as above; type: cell-based; details: Providencia rettgeri, HM56
Procedure: as §1

S. marcescens A21235 = test: as above; type: cell-based; details: Serratia marcescens
Procedure: as §1

E. coli A2128 = test: as above; type: cell-based; details: Escherichia coli
Procedure: as §1

P. aeruginosa GN315 = test: as above; type: cell-based; details: Pseudomonas aeruginosa
Procedure: as §1

E. cloacae HM-43 = test: as above; type: cell-based; details: Enterobacter cloacae, HM43
Procedure: as §1

S. epidermidis A22152 = test: as above; type: cell-based; details: Staphylococcus epidermidis
Procedure: as §1

[2] = tested on: aminoglycoside-sensitive and aminoglycoside-resistant strains; test: Antibacterial spectrum, Table 1 strains; type: cell-based; details: strains of Table 1, compared with amikacin
Procedure: as §1

[3] = tested on: strains which phosphorylate the 3'-hydroxy group; details: background statement; cited from earlier work

Structure (SMILES): CNC[C@@H]1C[C@H](O)[C@@H](O)[C@@H](O[C@H]2[C@H](O)[C@@H](O[C@H]3O[C@H](CO)[C@@H](O)[C@H](N)[C@H]3O)[C@H](NC(=O)[C@@H](O)CCN)C[C@@H]2N)O1 [BB-K311, 1-N-[L-(-)-γ-amino-α-hydroxybutyryl]-4'-deoxy-6'-N-methylkanamycin A]
- MIC (B. brevis IFO 12334; B. brevis IFO 12334, ANT(4')-producing, Mueller-Hinton agar, read-out: MIC): 3.1 µg/mL (≈ 5.31 µM)
- MIC (S. aureus A22054; S. aureus A22054, ANT(4')-producing, Mueller-Hinton agar, read-out: MIC): 3.1 µg/mL (≈ 5.31 µM)
- MIC (S. epidermidis A22033; S. epidermidis A22033, ANT(4')-producing, Mueller-Hinton agar, read-out: MIC): 1.6 µg/mL (≈ 2.74 µM)
- MIC (E. cloacae A20364; E. cloacae A20364, enzyme produced: APH(3')-I, Mueller-Hinton agar, read-out: MIC): 6.3 µg/mL (≈ 10.8 µM)
- MIC (E. coli A20363; E. coli A20363, enzyme produced: APH(3')-I, Mueller-Hinton agar, read-out: MIC): 3.1 µg/mL (≈ 5.31 µM)
- MIC (E. cloacae A21006; E. cloacae A21006, enzyme produced: APH(3')-II, Mueller-Hinton agar, read-out: MIC): 3.1 µg/mL (≈ 5.31 µM)
- MIC (E. coli A20107; E. coli A20107, enzyme produced: APH(3')-II, Mueller-Hinton agar, read-out: MIC): 6.3 µg/mL (≈ 10.8 µM)
- MIC (E. coli A20895; E. coli A20895, enzyme produced: AAC(3)-I, Mueller-Hinton agar, read-out: MIC): 3.1 µg/mL (≈ 5.31 µM)
- MIC (E. coli A20732; E. coli A20732, enzyme produced: ANT(2"), Mueller-Hinton agar, read-out: MIC): 1.6 µg/mL (≈ 2.74 µM)
- activity relative to amikacin, on the average [1]: twice as active as amikacin
- MIC (E. cloacae A20464; E. cloacae A20464, enzyme produced: none, Mueller-Hinton agar, read-out: MIC): 3.1 µg/mL (≈ 5.31 µM)
- MIC (E. coli A9632; E. coli A9632, enzyme produced: none, Mueller-Hinton agar, read-out: MIC): 1.6 µg/mL (≈ 2.74 µM)
- MIC (P. stuartii A20615; P. stuartii A20615, enzyme produced: none, Mueller-Hinton agar, read-out: MIC): 3.1 µg/mL (≈ 5.31 µM)
- MIC (P. Morganii A20031; P. Morganii A20031, enzyme produced: none, Mueller-Hinton agar, read-out: MIC): 6.3 µg/mL (≈ 10.8 µM)
- MIC (K. pneumoniae A15130; K. pneumoniae A15130, enzyme produced: none, Mueller-Hinton agar, read-out: MIC): 1.6 µg/mL (≈ 2.74 µM)
- MIC (S. marcescens A20019; S. marcescens A20019, enzyme produced: none, Mueller-Hinton agar, read-out: MIC): 1.6 µg/mL (≈ 2.74 µM)
- MIC (S. aureus Smith; S. aureus Smith, enzyme produced: none, Mueller-Hinton agar, read-out: MIC): 1.6 µg/mL (≈ 2.74 µM)
- MIC (P. mirabilis A9900; P. mirabilis A9900, enzyme produced: none, Mueller-Hinton agar, read-out: MIC): 6.3 µg/mL (≈ 10.8 µM)
- MIC (B. brevis ATCC8185; B. brevis ATCC8185, enzyme produced: none, Mueller-Hinton agar, read-out: MIC): 1.6 µg/mL (≈ 2.74 µM)
- MIC (P. vulgaris A9526; P. vulgaris A9526, enzyme produced: none, Mueller-Hinton agar, read-out: MIC): 0.8 µg/mL (≈ 1.37 µM)
- MIC (S. marcescens A22382; S. marcescens A22382, AAC(6')-producing, Mueller-Hinton agar, read-out: MIC): 6.3 µg/mL (≈ 10.8 µM)
- MIC (S. epidermidis A22211; S. epidermidis A22211, AAC(6')-producing, Mueller-Hinton agar, read-out: MIC): 12.5 µg/mL (≈ 21.4 µM)
- MIC (S. aureus A22153; S. aureus A22153, AAC(6')-producing, Mueller-Hinton agar, read-out: MIC): 12.5 µg/mL (≈ 21.4 µM)
- MIC (P. aeruginosa GN4925; P. aeruginosa GN4925, AAC(6')-producing, Mueller-Hinton agar, read-out: MIC): 12.5 µg/mL (≈ 21.4 µM)
- MIC (S. aureus A22421; S. aureus A22421, AAC(6')-producing, Mueller-Hinton agar, read-out: MIC): 12.5 µg/mL (≈ 21.4 µM)
- MIC (S. marcescens A21226; S. marcescens A21226, AAC(6')-producing, Mueller-Hinton agar, read-out: MIC): 3.1 µg/mL (≈ 5.31 µM)
- MIC (S. marcescens A22288; S. marcescens A22288, AAC(6')-producing, Mueller-Hinton agar, read-out: MIC): 3.1 µg/mL (≈ 5.31 µM)
- MIC (P. rettgeri HM-56; P. rettgeri HM-56, AAC(6')-producing, Mueller-Hinton agar, read-out: MIC): 12.5 µg/mL (≈ 21.4 µM)
- MIC (S. marcescens A21235; S. marcescens A21235, AAC(6')-producing, Mueller-Hinton agar, read-out: MIC): 12.5 µg/mL (≈ 21.4 µM)
- MIC (E. coli A2128; E. coli A2128, AAC(6')-producing, Mueller-Hinton agar, read-out: MIC): 3.1 µg/mL (≈ 5.31 µM)
- MIC (P. aeruginosa GN315; P. aeruginosa GN315, AAC(6')-producing, Mueller-Hinton agar, read-out: MIC): 25 µg/mL (≈ 42.8 µM)
- MIC (E. cloacae HM-43; E. cloacae HM-43, AAC(6')-producing, Mueller-Hinton agar, read-out: MIC): 3.1 µg/mL (≈ 5.31 µM)
- MIC (S. epidermidis A22152; S. epidermidis A22152, AAC(6')-producing, Mueller-Hinton agar, read-out: MIC): 3.1 µg/mL (≈ 5.31 µM)
- antibacterial spectrum [2]: antibacterial spectrum similar to amikacin

Structure (SMILES): NC[C@H]1O[C@H](O[C@H]2[C@H](O)[C@@H](O[C@H]3O[C@H](CO)[C@@H](O)[C@H](N)[C@H]3O)[C@H](N)C[C@@H]2N)[C@H](O)[C@@H](O)[C@@H]1O [Kanamycin A, kanamycin A]
- MIC (B. brevis IFO 12334): > 100 µg/mL
- MIC (S. aureus A22054; A22054): > 100 µg/mL
- MIC (S. epidermidis A22033; A22033): 50 µg/mL (≈ 103 µM)
- MIC (E. cloacae A20364; A20364): 100 µg/mL (≈ 206 µM)
- MIC (E. coli A20363; A20363): 100 µg/mL (≈ 206 µM)
- activity against 3'-hydroxy phosphorylating strains [3]: certain strains of Gram-negative bacteria are resistant to kanamycin A
- MIC (E. cloacae A21006; A21006): 100 µg/mL (≈ 206 µM)
- MIC (E. coli A20107; A20107): 100 µg/mL (≈ 206 µM)
- MIC (E. coli A20895; A20895): 1.6 µg/mL (≈ 3.3 µM)
- MIC (E. coli A20732; A20732): 25 µg/mL (≈ 51.6 µM)
- MIC (E. cloacae A20464; A20464): 6.3 µg/mL (≈ 13 µM)
- MIC (E. coli A9632; A9632): 1.6 µg/mL (≈ 3.3 µM)
- MIC (P. stuartii A20615; A20615): 1.6 µg/mL (≈ 3.3 µM)
- MIC (P. Morganii A20031): 3.1 µg/mL (≈ 6.4 µM)
- MIC (K. pneumoniae A15130; A15130): 1.6 µg/mL (≈ 3.3 µM)
- MIC (S. marcescens A20019; A20019): 1.6 µg/mL (≈ 3.3 µM)
- MIC (S. aureus Smith): 0.8 µg/mL (≈ 1.65 µM)
- MIC (P. mirabilis A9900; A9900): 1.6 µg/mL (≈ 3.3 µM)
- MIC (B. brevis ATCC8185; ATCC8185): 1.6 µg/mL (≈ 3.3 µM)
- MIC (P. vulgaris A9526; A9526): 0.8 µg/mL (≈ 1.65 µM)
- MIC (S. marcescens A22382; A22382): 25 µg/mL (≈ 51.6 µM)
- MIC (S. epidermidis A22211; A22211): > 100 µg/mL
- MIC (S. aureus A22153; A22153): > 100 µg/mL
- MIC (P. aeruginosa GN4925; GN4925): 100 µg/mL (≈ 206 µM)
- MIC (S. aureus A22421; A22421): > 100 µg/mL
- MIC (S. marcescens A21226; A21226): 12.5 µg/mL (≈ 25.8 µM)
- MIC (S. marcescens A22288; A22288): > 100 µg/mL
- MIC (P. rettgeri HM-56): > 100 µg/mL
- MIC (S. marcescens A21235; A21235): 50 µg/mL (≈ 103 µM)
- MIC (E. coli A2128; A2128): 100 µg/mL (≈ 206 µM)
- MIC (P. aeruginosa GN315; GN315): > 100 µg/mL
- MIC (E. cloacae HM-43): > 100 µg/mL
- MIC (S. epidermidis A22152; A22152): > 100 µg/mL

Reference: patent US4181797A, “1-N-(ω-amino-α-hydroxyalkanoyl) derivatives of 4'-deoxy-6'-N-methylkanamycin A” (Bristol-Myers Company, priority 1978, dated 1980)
